This is an account of results in ChEMBL document CHEMBL1153150, “Synthesis and structure-activity relationship of novel lactam-fused chroman derivatives having dual affinity at the 5-HT(1A) receptor and the serotonin transporter” (Bioorg Med Chem Lett, 2010).

Assay [1] deals with T1, 5-hydroxytryptamine receptor 1A (Homo sapiens, UniProt P08908).
T1 sequence (P08908 whole entry): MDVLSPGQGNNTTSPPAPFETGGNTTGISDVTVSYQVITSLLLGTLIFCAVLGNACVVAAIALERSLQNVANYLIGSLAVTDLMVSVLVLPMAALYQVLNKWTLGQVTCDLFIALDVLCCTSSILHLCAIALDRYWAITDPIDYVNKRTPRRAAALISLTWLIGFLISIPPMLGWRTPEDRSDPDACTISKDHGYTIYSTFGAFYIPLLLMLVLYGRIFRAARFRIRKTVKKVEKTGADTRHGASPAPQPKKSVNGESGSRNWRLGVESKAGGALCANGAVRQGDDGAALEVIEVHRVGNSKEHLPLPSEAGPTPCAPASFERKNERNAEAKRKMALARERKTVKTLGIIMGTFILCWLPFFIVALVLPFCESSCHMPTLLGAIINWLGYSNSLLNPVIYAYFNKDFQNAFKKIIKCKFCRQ
Kind of assay: Agonist activity at human 5HT1A receptor expressed in CHO cells assessed as inhibition of forskolin-induced adenylate cyclase activity. The format is functional, cell-based.

The target of assay [2] is T2, 5-hydroxytryptamine receptor 1A (Homo sapiens) (UniProt P08908).
T2 sequence (whole entry): T1 sequence (P08908 whole entry)
The assay can be described thus: Agonist activity at human 5HT1A receptor expressed in CHO cells by [35S]GTPgammaS binding assay. Format: functional, cell-based.

The target of assay [3] is T1, 5-hydroxytryptamine receptor 1A. Kind of assay: Displacement of [3H][…] from human 5HT1A receptor expressed in CHO cells. Format: cell-based. (In general: Displacement assays read how much labelled ligand stays bound in the presence of the test substance.)
In assay [4] the target is Sodium-dependent serotonin transporter (Homo sapiens, UniProt P31645). Kind of assay: Displacement of labeled paroxetine from 5-HT transporter.
Sodium-dependent serotonin transporter, sequence (P31645 whole entry): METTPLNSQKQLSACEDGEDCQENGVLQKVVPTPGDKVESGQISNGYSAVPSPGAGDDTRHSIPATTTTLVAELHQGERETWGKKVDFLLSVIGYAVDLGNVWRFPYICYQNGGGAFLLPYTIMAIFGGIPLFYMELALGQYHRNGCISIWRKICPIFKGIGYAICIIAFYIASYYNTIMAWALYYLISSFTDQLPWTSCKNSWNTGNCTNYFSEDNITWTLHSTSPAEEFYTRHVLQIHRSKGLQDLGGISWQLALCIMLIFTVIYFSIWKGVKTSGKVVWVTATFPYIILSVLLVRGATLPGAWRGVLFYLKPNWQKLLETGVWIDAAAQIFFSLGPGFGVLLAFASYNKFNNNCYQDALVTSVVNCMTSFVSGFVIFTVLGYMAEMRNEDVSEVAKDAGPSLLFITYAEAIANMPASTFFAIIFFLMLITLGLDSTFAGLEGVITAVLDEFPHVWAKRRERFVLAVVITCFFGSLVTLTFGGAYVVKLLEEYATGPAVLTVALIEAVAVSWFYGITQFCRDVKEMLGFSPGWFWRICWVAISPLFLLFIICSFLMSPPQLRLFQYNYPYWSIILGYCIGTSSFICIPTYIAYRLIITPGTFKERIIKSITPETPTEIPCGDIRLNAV

One may read the EC50 as the concentration that produces a half-maximal response. By Emax is commonly meant the size of the effect at its maximum, as opposed to the concentration needed. Broadly, the Ki is a dissociation constant, usually derived from enzyme kinetics or from competition with a known ligand. High values mean a looser hold on the target, low ones a stronger hold on the target. As usually defined, the IC50 is the point on the concentration scale where inhibition reaches its midpoint.

Regarding `O=C1NCCc2cc(F)c3c(c21)CC(N(CCCc1c[nH]c2ccc(F)cc12)CC1CC1)CO3` (racemic), in assay [1], the EC50 is 101 nM. The Emax in assay [2] is 62%. For the same molecule, the Ki in assay [3] came out at 50 nM; in assay [4], 112 nM.

Consider `CCN(CCCc1c[nH]c2ccc(F)cc12)C1COc2ccc3c(c2C1)C(=O)NC3` (racemic), for which, in assay [1], the concentration for a half-maximal effect (EC50) came out at 28 nM. Besides, the Emax in assay [2] turned out to be 78%. Besides, the figures for the Ki in assay [3] and in assay [4] were 2 nM and 8 nM, respectively.

Turning to `O=C1NCCc2ccc3c(c21)CC(N(CCCc1c[nH]c2ccc(F)cc12)C(=O)c1ccccc1)CO3` (racemic), the inhibition constant (Ki) in assay [3] stood at 1220 nM; in assay [4], 671 nM.

In the case of `CC(C)N(CCCc1c[nH]c2ccc(F)cc12)C1COc2ccc3c(c2C1)C(=O)NCC3` (racemic), the concentration giving a half-maximal response (EC50) in assay [1] came out at 252 nM. This molecule also came in with a maximal effect (Emax) in assay [2] of 94%. Besides, the Ki in assay [3] was determined as 129 nM; in assay [4] it was 8 nM.

Regarding `O=C1NCCc2ccc3c(c21)CC(N(CCCc1c[nH]c2ccc(F)cc12)C1CCC1)CO3` (racemic), the EC50 in assay [1] was 54 nM. Besides, the Emax in assay [2] worked out at 77%. The Ki was found to be 95 nM in assay [3] and 28 nM in assay [4].

As to `O=C1NCc2ccc3c(c21)CC(N(CCCc1c[nH]c2ccc(F)cc12)C1CCC1)CO3` (racemic), the EC50 in assay [1] was found to be 350 nM. The Ki was found to be 101 nM in assay [3] and 63 nM in assay [4].

As for `CC(C)CN(CCCc1c[nH]c2ccc(F)cc12)C1COc2ccc3c(c2C1)C(=O)NCC3` (racemic), the results for the Ki in assay [3] and in assay [4] were 927 nM and 184 nM, respectively.

For `CCN(CCCc1c[nH]c2ccc(F)cc12)C1COc2c(F)cc3c(c2C1)C(=O)NCC3` (racemic), the EC50 in assay [1] was 10 nM. For the same molecule, the maximal effect (Emax) in assay [2] amounted to 92%. In addition, the results for the inhibition constant (Ki) in assay [3] and in assay [4] were 4 nM and 15 nM, respectively.

Take `O=C1NCCc2ccc3c(c21)CC(N(CCCc1c[nH]c2ccc(F)cc12)CC1CC1)CO3` (racemic): the EC50 in assay [1] was 36 nM. Further, the Emax in assay [2] is 91%. The inhibition constant Ki in assay [3] amounted to 19 nM; in assay [4] it was 26 nM.

In assay [2], `N#Cc1ccc2[nH]cc(CCCCN(CC3CC3)C3COc4ccc5c(c4C3)C(=O)NC5)c2c1` (single isomer, unassigned; (-)) [listing 1 of 2 here] gave an Emax of 0%.

Take `O=C1NCc2ccc3c(c21)CC(NCCCc1c[nH]c2ccc(F)cc12)CO3` (racemic): in assay [1], the EC50 was determined as 62 nM. This molecule also returned an Emax in assay [2] of 100%. Besides, the inhibitory constant (Ki) in assay [3] was determined as 24 nM; in assay [4], 8 nM.

With `O=C1NCc2ccc3c(c21)CC(N(CCCc1c[nH]c2ccc(F)cc12)CC1CCCCC1)CO3` (racemic), in assay [4], the affinity corresponds to a Ki of 1240 nM.

On to `CCCN(CCCc1c[nH]c2ccc(F)cc12)C1COc2ccc3c(c2C1)C(=O)NCC3` (racemic), for which the concentration giving a half-maximal response (EC50) in assay [1] was found to be 34 nM. The same molecule had an Emax in assay [2] of 100%. In addition, the inhibition constant Ki amounted to 13 nM in assay [3] and 61 nM in assay [4].

Regarding `O=C1NCc2ccc3c(c21)CC(N(CCCc1c[nH]c2ccc(F)cc12)CC1CC1)CO3` (stereo in doubt; (+)-46) [listing 1 of 2 here], in assay [1], the half-maximal effective concentration (EC50) is 24 nM. The results for the inhibition constant Ki in assay [3] and in assay [4] were 3 nM and 5 nM, respectively.

For the molecule `CN(CCCc1c[nH]c2ccc(F)cc12)C1COc2ccc3c(c2C1)C(=O)NCC3` (racemic), the EC50 in assay [1] is 26 nM. In assay [2], this molecule returned a maximal effect (Emax) of 99%. The Ki was determined as 23 nM in assay [3] and 17 nM in assay [4].

`O=C1NCc2ccc3c(c21)CC(N(CCCc1c[nH]c2ccc(F)cc12)CC1CC1)CO3` (racemic) [listing 1 of 2 here]: the IC50 in assay [1] was found to be 223 nM. Also, the inhibition constant Ki was 6 nM in assay [3] and 15 nM in assay [4].

Take `O=C1NCc2ccc3c(c21)CC(N(CCCc1c[nH]c2ccc(F)cc12)CC1CC1)CO3` (racemic) [listing 2 of 2 here]: the maximal effect (Emax) in assay [2] was found to be 0%.

`O=C1NCCc2cc(F)c3c(c21)CC(NCCCc1c[nH]c2ccc(F)cc12)CO3` (racemic): in assay [1], the 50% effective concentration (EC50) was determined as 4 nM. Further, in assay [2], the Emax is 98%. The Ki in assay [3] came out at 6 nM; in assay [4] it was 27 nM.

Turning to `N#Cc1ccc2[nH]cc(CCCCN(CC3CC3)C3COc4ccc5c(c4C3)C(=O)NC5)c2c1` (single isomer, unassigned; (+)) [listing 1 of 2 here], the EC50 in assay [1] was 19 nM. Moreover, the inhibitory constant (Ki) in assay [3] was found to be 31 nM; in assay [4], 12 nM.

Take `N#Cc1ccc2[nH]cc(CCCCN(CC3CC3)C3COc4ccc5c(c4C3)C(=O)NC5)c2c1` (racemic) [listing 1 of 2 here]: the Emax in assay [2] was determined as 0%.

For `CCN(CCCc1c[nH]c2ccc(F)cc12)C1COc2ccc3c(c2C1)C(=O)NCC3` (racemic), the half-maximal effective concentration (EC50) in assay [1] stood at 9 nM. Besides, the Emax in assay [2] worked out at 97%. For the same molecule, the results for the inhibitory constant (Ki) in assay [3] and in assay [4] were 6 nM and 30 nM, respectively.

In the case of `O=C1NCCc2ccc3c(c21)CC(NCCCc1c[nH]c2ccc(F)cc12)CO3` (racemic), the EC50 in assay [1] turned out to be 25 nM. In assay [2], this molecule showed a maximum response (Emax) of 87%. Besides, the Ki in assay [3] was 44 nM; in assay [4] it was 10 nM.

For the molecule `O=C1NCc2ccc3c(c21)CC(N(CCCc1c[nH]c2ccc(F)cc12)CC1CC1)CO3` (stereo in doubt; (+)-46) [listing 2 of 2 here], the maximum response (Emax) in assay [2] was 84%.

`CC(C)CN(CCCc1c[nH]c2ccc(F)cc12)C1COc2ccc3c(c2C1)C(=O)NC3` (racemic): the affinity in assay [4] corresponds to a Ki of 617 nM.

As to `N#Cc1ccc2[nH]cc(CCCNC3COc4ccc5c(c4C3)C(=O)NC5)c2c1` (racemic), the 50% effective concentration (EC50) in assay [1] came out at 22 nM. The Emax in assay [2] worked out at 91%. The inhibition constant Ki in assay [3] was determined as 36 nM; in assay [4] it was 13 nM.

Consider `O=C1NCc2ccc3c(c21)CC(NCCCCc1c[nH]c2ccc(F)cc12)CO3` (racemic), for which the EC50 in assay [1] turned out to be 284 nM. In assay [2], the maximal response (Emax) was determined as 96%. The figures for the Ki in assay [3] and in assay [4] were 22 nM and 20 nM, respectively.

Molecule `O=C1NCc2ccc3c(c21)CC(N(CCCc1c[nH]c2ccc(F)cc12)CC1CC1)CO3` (single isomer, unassigned; (-)) [listing 1 of 2 here] registered a maximal response (Emax) in assay [2] of 0%.

On to `CN(CCCc1c[nH]c2ccc(F)cc12)C1COc2ccc3c(c2C1)C(=O)NC3` (racemic), for which the EC50 in assay [1] was 75 nM. Besides, in assay [2], the Emax worked out at 80%. The inhibition constant Ki in assay [3] was found to be 22 nM; in assay [4] it was 9 nM.

As to `O=C1NCc2ccc3c(c21)CC(N(CCCc1c[nH]c2ccc(F)cc12)CC1CC1)CO3` (single isomer, unassigned; (-)) [listing 2 of 2 here], in assay [1], the IC50 worked out at 320 nM. Further, the inhibitory constant (Ki) in assay [3] is 8 nM; in assay [4], 6 nM.

As to `N#Cc1ccc2[nH]cc(CCCCN(CC3CC3)C3COc4ccc5c(c4C3)C(=O)NC5)c2c1` (single isomer, unassigned; (-)) [listing 2 of 2 here], the 50% inhibitory concentration (IC50) in assay [1] amounted to 203 nM. For the same molecule, the values for the Ki in assay [3] and in assay [4] were 10 nM and 17 nM, respectively.

In assay [2], `N#Cc1ccc2[nH]cc(CCCCN(CC3CC3)C3COc4ccc5c(c4C3)C(=O)NC5)c2c1` (single isomer, unassigned; (+)) [listing 2 of 2 here] gave an Emax of 100%.

Regarding `O=C1NCc2ccc3c(c21)CC(N(CCCCc1c[nH]c2ccc(F)cc12)CC1CC1)CO3` (racemic), the concentration giving a half-maximal response (EC50) in assay [1] was 49 nM. Also, in assay [2], the maximal effect (Emax) worked out at 87%. Besides, the inhibition constant Ki amounted to 19 nM in assay [3] and 139 nM in assay [4].

As to `N#Cc1ccc2[nH]cc(CCCCN(CC3CC3)C3COc4ccc5c(c4C3)C(=O)NC5)c2c1` (racemic) [listing 2 of 2 here], in assay [1], the half-maximal inhibitory concentration (IC50) came out at 63 nM. In addition, the Ki in assay [3] was found to be 4 nM; in assay [4] it was 25 nM.

As to `O=C1NCCc2ccc3c(c21)CC(N(CCCc1c[nH]c2ccc(F)cc12)CCC(F)(F)F)CO3` (racemic), the Ki worked out at 966 nM in assay [3] and 340 nM in assay [4].

Regarding `O=C1NCc2ccc3c(c21)CC(N(CCCc1c[nH]c2ccc(F)cc12)C(=O)c1ccccc1)CO3` (racemic), the half-maximal effective concentration (EC50) in assay [1] was determined as 436 nM. The molecule further showed a maximum response (Emax) in assay [2] of 96%. In addition, the results for the inhibition constant (Ki) in assay [3] and in assay [4] were 85 nM and 31 nM, respectively.
